Here are results for 21 compounds from PubChem BioAssay (NCI).

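Results reflect a 48-hour exposure of cells in 96-well plates to compound at five concentrations. TGI denotes the concentration required for complete inhibition of growth.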 Bounds are passed on as bounds.

What all share (experiment): NCI tumour cell line growth inhibition, 48 h
Experiment [1] relates to DU-145 prostate.
The test system of experiment [2] is SF-268 CNS.
For experiment [3], the system named is RXF 393 renal.
Experiment [4] deals with MDA-MB-435.
In experiment [5] the test system is 786-0 renal.
The subject of experiment [6] is A549 NSCLC.
Experiment [7] concerns HCC-2998 colon.
Experiment [8] deals with PC-3 prostate.
For experiment [9], the system named is UO-31 renal.
In experiment [10] the test system is SK-MEL-28 melanoma.
Experiment [11] deals with SW-620 colon.
Experiment [12] has as its system NCI-H226 lung.
The test system of experiment [13] is COLO 205 colon.
For experiment [14], the system named is HOP-62 NSCLC.

In the case of `O=C(Nc1cccc(NC(=O)C(=O)C2CCC3=C(Sc4ccccc4N3)C2=O)n1)C(=O)C1CCC2=C(Sc3ccccc3N2)C1=O` (stereo unspecified), the TGI in experiment [1], in experiment [2], in experiment [3], in experiment [4], in experiment [5] and in [6] was above 100 µM throughout. Further, the TGI in [7], in [8], in experiment [9], in [10], in [11] and in experiment [12] was above 100 µM in each case. For the same compound, the TGI in experiment [13] was above 100 µM.
With `NC(=O)NC(=O)CCC(NS(=O)(=O)c1ccccc1)C(=O)NC(N)=O` (stereo unspecified), the TGI in experiment [1], in [2], in experiment [14], in experiment [4], in [5] and in experiment [6] was above 100 µM in each case. In addition, the TGI in experiment [7], in experiment [8], in experiment [9], in experiment [10], in experiment [11] and in [12] was above 100 µM throughout. In addition, in [13], the TGI was above 100 µM.
Take `C=C1[C@H](OC(=O)C(C)C)[C@@H](OC(C)=O)[C@@H](OC(C)=O)C(C)(C)[C@@H]2O[C@H]2[C@@H](C)C(=O)[C@@]2(OC(C)=O)C[C@@](C)(OC(C)=O)[C@H](OC(C)=O)[C@@H]2[C@H]1OC(C)=O`: the TGI in experiment [1], in experiment [2], in experiment [14], in experiment [4], in experiment [5] and in [6] was above 100 µM each time. Also, the TGI in [7], in experiment [8], in [9], in [11], in experiment [12] and in [13] was above 100 µM each time.
In the case of `CC1=CC=C2c3ccccc3C=CN2C(=O)C1`, the TGI in experiment [1], in [2], in [14], in experiment [4], in [5] and in experiment [6] was above 100 µM each time. The TGI in experiment [7], in [8], in experiment [9], in experiment [10], in experiment [11] and in [12] was above 100 µM in each case. The TGI in experiment [13] is above 100 µM.
As for `Cc1ccccc1N=CN(C)C`, the TGI in experiment [1], in [2], in experiment [3], in [14], in experiment [4] and in experiment [5] was above 100 µM throughout. Besides, the TGI in experiment [6], in [8], in experiment [9], in experiment [10], in experiment [12] and in experiment [13] was above 100 µM each time.
`Cc1nnc2sc(Cl)nn12`: the TGI in [1] was above 100 µM; in experiment [14], 96 µM; in [4], 20.2 µM; in experiment [5], 86.8 µM; in [6] it was 72.8 µM; in [7], 31.6 µM. Besides, the TGI in experiment [8] is 47.2 µM; in [9], 74 µM; in experiment [10] it was 34.2 µM; in experiment [11], 16.6 µM; in [12] it was 86.2 µM; in [13], 29.9 µM.
`O=C(Nc1cc2c(=O)[nH]c3ccccc3c2oc1=O)c1cnccn1`: the TGI in [1], in experiment [3], in experiment [4], in [5], in [6] and in experiment [7] was above 100 µM in each case. Moreover, the TGI in experiment [8], in [9], in experiment [10], in [11], in experiment [12] and in [13] was above 100 µM in each case.
Regarding `COc1ccc(/C=N/n2c(=O)[nH]c3ccccc3c2=O)cc1`, the TGI in experiment [1], in [2], in experiment [14], in [4], in experiment [5] and in [6] was above 100 µM each time. Moreover, the TGI in [8], in experiment [9], in experiment [10], in [11], in experiment [12] and in experiment [13] was above 100 µM each time.
As for `Cc1n[n+](CC(=O)c2ccccc2)c2sc(N)nn12`, the TGI in [1], in [2], in experiment [3], in experiment [14], in experiment [4] and in experiment [5] was above 100 µM each time. For the same compound, the TGI in experiment [6], in [8], in [9], in experiment [10], in [11] and in experiment [12] was above 100 µM throughout. The compound also displayed a TGI in experiment [13] above 100 µM.
For `NC1OC(COC(=O)c2ccccc2)C(O)C(OC(=O)c2ccccc2)C1OC(=O)c1ccccc1` (stereo unspecified), the TGI in [1] is above 100 µM; in experiment [2], 67.4 µM; in experiment [3], 31.3 µM; in experiment [14] it was 50.2 µM; in [4] it was 46.7 µM; in [5], 30.3 µM. The TGI turned out to be 48 µM in experiment [6]; 58.2 µM in [8]; 94.2 µM in [9]; 42.7 µM in experiment [10]; 53.6 µM in [11]; 43.1 µM in [12]. In [13], this compound displayed a TGI of 50.3 µM.
As for `C=CCOc1ccc(/C(N=Nc2ccc(C)cc2)=N/NC(=O)c2ccccc2)cc1OC`, the TGI in experiment [1] was above 100 µM; in [2] it was above 100 µM; in experiment [14], above 100 µM; in experiment [4], 47.3 µM; in [5], above 100 µM; in experiment [6], 64.9 µM. Besides, the TGI in experiment [7] is 76.5 µM; in experiment [8], above 100 µM; in experiment [9], 73.4 µM; in [10], 51.3 µM; in experiment [11] it was above 100 µM; in experiment [12], 58.4 µM. Moreover, the TGI in experiment [13] stood at 66.1 µM.
Take `O=c1c(-c2c(-c3ccccc3)oc3ccc(Cl)cc3c2=O)c(-c2ccccc2)oc2ccc(Cl)cc12`: the TGI is above 100 µM in experiment [1]; above 92.3 µM in experiment [2]; above 100 µM in experiment [3]; above 61.4 µM in experiment [14]; above 100 µM in experiment [4]; above 100 µM in [5]. Moreover, the TGI in experiment [6], in [7], in experiment [8], in experiment [10], in [11] and in [12] was above 100 µM throughout. This compound had a TGI in [13] above 100 µM.
With `Cc1ccc(-c2cc(-c3ccc(Cl)cc3)nc(/N=C3\C(=O)N(CN4CCOCC4)c4ccccc43)n2)cc1`, the TGI in experiment [1] is above 100 µM; in experiment [2], above 100 µM; in experiment [3], 30.9 µM; in experiment [14] it was above 100 µM; in experiment [4], 35 µM; in [5] it was 74.3 µM. The TGI was 39.7 µM in experiment [6]; 34 µM in experiment [7]; above 100 µM in experiment [8]; above 100 µM in experiment [10]; 62.8 µM in [11]; 89.9 µM in [12]. Besides, the TGI in experiment [13] is 79.8 µM.
Consider `CC(=O)OCC1OC(n2c(C#N)cc(=O)[nH]c2=O)CC1OC(C)=O` (stereo unspecified), for which the TGI in [1], in experiment [2], in experiment [3], in [14], in experiment [4] and in experiment [5] was above 100 µM each time. For the same compound, the TGI in experiment [6], in experiment [8], in [9], in experiment [10], in experiment [11] and in [12] was above 100 µM each time. In [13], the TGI was above 100 µM.
As to `Oc1cccc(-c2ccc3c4c2O[C@H]2c5[nH]c6ccccc6c5C[C@@]5(O)[C@@H](C3)N(CC3CC3)CC[C@]425)c1`, the TGI in experiment [1] turned out to be 3.36 µM; in experiment [2], 3.06 µM; in [3], 2.63 µM; in experiment [4], 3.1 µM; in experiment [5], 2.97 µM; in experiment [6], 3.22 µM. Further, the TGI is 3.44 µM in experiment [8]; 3.03 µM in [9]; 6.15 µM in [11]; 28.9 µM in [12]; 5.92 µM in experiment [13].
On to `COc1cc(C2SCC(=O)N2Cc2ccccc2)cc(OC)c1OC` (stereo unspecified), for which the TGI in experiment [1], in experiment [2], in [4], in experiment [5], in experiment [6] and in experiment [7] was above 100 µM each time. The TGI in experiment [8], in experiment [9], in [10], in experiment [11], in experiment [12] and in [13] was above 100 µM in each case.
As to `CC1(C)Oc2ccc3c(=O)c(-c4ccccc4)c(-c4ccccc4)oc3c2C1C(=O)O` (stereo unspecified), the TGI in experiment [1], in [2], in [3], in experiment [14], in experiment [4] and in experiment [5] was above 100 µM throughout. Further, the TGI in experiment [6], in [7], in experiment [8], in experiment [12] and in experiment [13] was above 100 µM throughout.
Regarding `CC(C)(C)OC(=O)[C@@H]1CCC(=S)N1Cc1ccccc1`, the TGI in experiment [1], in [3], in experiment [4], in experiment [5], in experiment [6] and in experiment [7] was above 100 µM each time. Also, the TGI in experiment [8], in experiment [9], in experiment [10], in experiment [11], in experiment [12] and in [13] was above 100 µM each time.
Turning to `CCOC(=O)[C@@H]1OC(c2ccccc2)O[C@H]1C(=O)OCC`, the TGI in experiment [1], in experiment [2], in experiment [14], in experiment [4], in [5] and in experiment [6] was above 100 µM throughout. The TGI in experiment [8], in experiment [9], in [10], in [11], in experiment [12] and in experiment [13] was above 100 µM each time.
In the case of `CCSC1=N/C(=C\c2ccco2)C(NN)=N1`, the TGI in experiment [1], in experiment [2], in experiment [3], in [14], in experiment [4] and in experiment [5] was above 50 µM throughout. Besides, the TGI in [6], in experiment [8], in experiment [9], in experiment [10], in [11] and in experiment [12] was above 50 µM throughout. The compound further returned a TGI in experiment [13] above 50 µM.
Turning to `Cc1ccc2c3c(cnc2n1)C(=O)OCCN3C`, the TGI in experiment [1], in experiment [2], in [3], in [14], in experiment [4] and in experiment [5] was above 100 µM each time. Besides, the TGI in experiment [6], in experiment [7], in experiment [8], in [9], in experiment [10] and in [11] was above 100 µM throughout. The same compound showed a TGI in experiment [13] above 100 µM.
